Source: publication PMC10914731, “Homo-BacPROTAC-induced degradation of ClpC1 as a strategy against drug-resistant mycobacteria” (Nature Communications, 2024)
Where “and” joins values, the source holds several entries; their conditions need not be identical. Identical values can stand only once. Like-named read-outs stand apart in the source and are kept apart here.

How the values were obtained:
[1] = type: in vitro ADME, Rat
Method in brief: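 Metabolic depletion in liver microsomes (0.5 mg/ml, 1 mM NADPH, 37 °C) starting from 1 µmol/l test compound, sampled at multiple times with acetonitrile quench. LC-MS/MS quantitation; half-life converted to %Qh.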

[2] = tested on: Mtb Beijing lineage HN878; type: cell-based, Mycobacterium tuberculosis
Pseudomonas aeruginosa = test: MIC ESKAPES panel, Pseudomonas aeruginosa; type: cell-based
Experimental: Minimum inhibitory concentration (MIC) against ESKAPES panel of Gram positive and Gram negative pathogens (Enterococcus faecium, Staphylococcus aureus, Klebsiella pneumoniae, Acinetobacter baumannii, Pseudomonas aeruginosa, Enterobacter cloacae and Salmonella typhimurium [ESKAPES panel]) were determined at the FNDR by the standard broth dilution method [CLSI, M100]. […] Mueller Hinton broth (MHB) medium was used to grow ESKAPES panel strains. The individual cultures were added as 200 μL (inoculum of 3–7 × 10^5 cfu/ml) to the respective assay plates in each well to all columns, except the media control (200 μL of medium). […] The assay plates were incubated at 37 °C, and the results were noted on the 2nd day as turbidometric readout. The clear wells indicated inhibition of growth, while the turbid wells indicated uninhibited growth.

[3] = tested on: Mycobacterium intracellulare; test: microbe, parasite or virus in culture; type: cell-based
in vivo = type: in vivo, BALB/cAnNCrl mice
Experimental: The in-life experimental procedures were conducted in strict compliance with German and European animal welfare legislation in an AAALAC-accredited facility. Male BALB/cAnNCrl mice (Charles River Laboratories Research Models and Services, 97633 Sulzfeld, Germany) were used. Animals were 9 weeks old at dosing with a body weight of 21.6–24.3 g. Animals were delivered free of pathogens according to FELASA recommendations with a health certificate provided by the breeder. Upon receipt, the state of health and sex was checked. Animals acclimatized for at least 5 days before the commencement of the in-life phase. During acclimation, animals were group-housed in individually ventilated cages, on birch wood granulate bedding with species-specific enrichment (nesting material, mouse igloo, gnawing wood). During experimental conduct, animals were housed in conventional cages with elevated grid floors. Grid floor was used to avoid contamination with test item material excreted via urine and feces and subsequent reuptake during fur grooming. No bedding and enrichment were provided except a cage divider, which can be used as a shelter. Animals always had unlimited access to food and water and received a pelleted, total pathogen-free maintenance diet and tap drinking water, sterilized by filter.
In case of incomplete dissolution, the formulation was filtered at 40 °C (non-pyrogenic sterile-R filter, 0.2 µm). All formulations were stirred warm until administration. Actual test item content was determined bioanalytically.
Male BALB/cAnNCrl mice (n = 3 per test item and administration route) received a bolus dose of the formulated test item(s) (1 mg/kg iv, 30 mg/kg po) at t = 0 h, and whole blood samples were collected subsequently (35 µl at 0.1 (iv) / 0.25 (po), 0.5, 1, 2, 4, 6 h; 600 µl at sacrifice after 24 h). Animals were euthanized by exsanguination in deep isoflurane anesthesia. Whole blood samples were immediately stored on ice at about 4 °C. Plasma was separated by centrifugation at approximately 10,000 × g for 5 m at +4 °C. Centrifugation of each blood sample was started within 10 m after collection. A single aliquot of at least 15 µL of plasma was prepared and immediately stored at −20 ± 5 °C.
Sample proteins were precipitated with ACN (1 + 12, v/v) containing internal standard, and supernatants analyzed by quantitative UPLC-MS/MS: Phenomenex Luna Omega C18, 2.1 × 50 mm, 1.6 µm, 40 °C, gradient between 10% - 90% ACN with 0.1% formic acid. LogD determination: Lipophilicity of the test items, expressed as chromLogD7.5, was assessed by measuring their chromatographic retention times on C18-material. The chromatographic retention versus logD7.5 values of a series of thirteen n-alkan-2-ones (2-butanone – 2-hexadecanone) served as lipophilicity calibration.

Mtb H37Rv = settings: combination with bedaquiline; cited from earlier work
[4] = Pseudomonas aeruginosa, Gram negative, n = 3 well replicates
[5] = Pseudomonas aeruginosa, Gram-Negative Bacteria, replicates 1-3
[6] = Experiment 2, three replicate columns
[7] = Experiment 2, three replicate columns, read-out: MIC (µM) Mycobacterium intracellulare
[8] = Mycobacterium intracellulare, Experiment 1, read-out: MIC Mycobacterium intracellulare
[9] = Mycobacterium intracellulare, Experiment 2, three replicate columns, read-out: MIC (µM) Mycobacterium intracellulare
[10] = Mycobacterium intracellulare, Experiment 2, three replicate columns, read-out: MIC (µg/ml) Mycobacterium intracellulare
[11] = Mycobacterium intracellulare, mean ± SD, read-out: MIC Mycobacterium intracellulare
[12] = dose-normalized, mice, 1 mg kg-1 iv bolus
[13] = iv bolus, individual animals 1-3, BLOQ <1.00 nmol/l, listed as 8 (UdSBI-0545)
[14] = iv bolus, individual animals 1-3, listed as 8 (UdSBI-0545)
[15] = iv bolus, mice, Mean, BLOQ <1.00 nmol/l
[16] = male, BALB/cAnNCrl, mouse, in vivo, iv, 1 mg/kg

COC(c1ccccc1)C1NC(=O)C(C)NC(=O)C(CC(C)CO)N(C)C(=O)C(Cc2cn(Cc3cn(CCOCCOCCOCCOCCn4cc(Cn5cc(CC6NC(=O)C(C(C)C)NC(=O)C(CC(C)C)N(C)C(=O)C(C(C)C)NC(=O)C(C(OC)c7ccccc7)NC(=O)C(C)NC(=O)C(CC(C)CO)N(C)C6=O)c6ccccc65)nn4)nn3)c3ccccc23)NC(=O)C(C(C)C)NC(=O)C(CC(C)C)N(C)C(=O)C(C(C)C)NC1=O (centres unmarked) [Compound 8]
Microsomal Stability Rat QH ([1]; Rat): 43% and 48.3% and 40.9% | Microsomal Stability Rat ([1]; clearance in microsomes): 40 %Qh | inhibition of bacterial growth, Mtb Beijing strain HN878 ([2]; compared to the matching monomers, result in words): more efficient inhibition of bacterial | MIC (Pseudomonas aeruginosa; Gram-Negative Bacteria, replicates 1-3, listed as 8 (UdSBI-0545)): >50 µM | MIC (Pseudomonas aeruginosa; [4]): > 50 µM | MIC (Pseudomonas aeruginosa; [5]): > 109 µg/mL | MIC ([3]; Experiment 1, listed as 8 (UdSBI-0545), read-out: MIC Mycobacterium intracellulare): >50 µM | MIC (µg/ml) Mycobacterium intracellulare [3, 6]: >108.53 µg/mL | MIC [3, 7]: >50 µM | MIC [3, 8]: > 109 µg/mL | MIC [3, 9]: > 50 µM | MIC [3, 10]: > 109 µg/mL | MIC [3, 11]: > 50 µM | AUC (in vivo; [12]): 8580 h nM/(nmol kg-1) | Cmax (in vivo; [12]): 6710 nM/(nmol kg-1) | Plasma concentration 6 h (in vivo; [13]): 90.8 nM and 118 nM and 77.8 nM | Plasma concentration 24 h (in vivo; [13]): 14.8 nM and 18.2 nM and 13.3 nM | AUC0-inf/Dose (in vivo; [14]): 7860 h nM/(nmol kg-1) and 10400 h nM/(nmol kg-1) and 8420 h nM/(nmol kg-1) | AUC0-t/Dose (in vivo; [14]): 7540 h nM/(nmol kg-1) and 10000 h nM/(nmol kg-1) and 8140 h nM/(nmol kg-1) | CL (in vivo; [14]): 2.1 mL/min/kg and 1.6 mL/min/kg and 2.0 mL/min/kg | CL PL QH (in vivo; [14]): 2.4% and 1.8% and 2.2% | Cmax/Dose (in vivo; [14]): 5300 nM/(nmol kg-1) and 7400 nM/(nmol kg-1) and 7420 nM/(nmol kg-1) | MRT (in vivo; [14]): 4.5 h and 4.3 h and 3.8 h | Plasma concentration 0.1 h (in vivo; [14]): 2440 nM and 3410 nM and 3420 nM | Plasma concentration 0.5 h (in vivo; [14]): 1650 nM and 1900 nM and 1850 nM | Plasma concentration 1 h (in vivo; [14]): 655 nM and 1140 nM and 855 nM | Plasma concentration 2 h (in vivo; [14]): 328 nM and 402 nM and 307 nM | Plasma concentration 4 h (in vivo; [14]): 110 nM and 144 nM and 117 nM | Vss (in vivo; [14]): 0.6 L/kg and 0.4 L/kg and 0.5 L/kg | t1/2 (in vivo; [14]): 6.9 h and 6.7 h and 6.6 h | AUC0-inf/Dose (in vivo; iv bolus, mice, Mean): 8900 h nM/(nmol kg-1) | AUC0-t/Dose (in vivo; iv bolus, mice, Mean): 8580 h nM/(nmol kg-1) | CL (in vivo; iv bolus, mice, Mean): 1.9 mL/min/kg | CL PL QH (in vivo; iv bolus, mice, Mean): 2.1% | Cmax/Dose (in vivo; iv bolus, mice, Mean): 6710 nM/(nmol kg-1) | MRT (in vivo; iv bolus, mice, Mean): 4.2 h | Plasma concentration 0.1 h (in vivo; iv bolus, mice, Mean): 3090 nM | Plasma concentration 0.5 h (in vivo; iv bolus, mice, Mean): 1800 nM | Plasma concentration 1 h (in vivo; iv bolus, mice, Mean): 883 nM | Plasma concentration 2 h (in vivo; iv bolus, mice, Mean): 346 nM | Plasma concentration 4 h (in vivo; iv bolus, mice, Mean): 124 nM | Vss (in vivo; iv bolus, mice, Mean): 0.5 L/kg | t1/2 (in vivo; iv bolus, mice, Mean): 6.7 h | Plasma concentration 6 h (in vivo; [15]): 95.5 nM | Plasma concentration 24 h (in vivo; [15]): 15.4 nM | VSS (in vivo; mice, 1 mg kg-1 iv bolus): 0.48 L/kg | Cl (in vivo; plasma clearance, mice, 1 mg kg-1 iv bolus): 1.90 mL/min/kg | T1/2 (in vivo; plasma, mice, 1 mg kg-1 iv bolus): 6.74 h

COC(c1ccccc1)C1NC(=O)C(C)NC(=O)C(CC(C)CO)N(C)C(=O)C(Cc2cn(C)c3ccccc23)NC(=O)C(Cc2cn(CCCCCn3cc(CC4NC(=O)C(CC(C)C)N(C)C(=O)C(C(C)C)NC(=O)C(C(OC)c5ccccc5)NC(=O)C(C)NC(=O)C(CC(C)CO)N(C)C(=O)C(Cc5cn(C)c6ccccc56)NC4=O)nn3)nn2)NC(=O)C(CC(C)C)N(C)C(=O)C(C(C)C)NC1=O (centres unmarked) [Compound 12]
Microsomal Stability Rat ([1]; rat, microsomes, pH 7.5): < 23 %Qh | Microsomal Stability Rat QH ([1]; rat, microsomes, pH 7.5): <23.1% | inhibition of bacterial growth, Mtb Beijing strain HN878 [2]: more efficient inhibition of bacterial | MIC (Pseudomonas aeruginosa; Gram-Negative Bacteria, replicates 1-3, listed as 12 (UdSBI-4377)): >50 µM | MIC (Pseudomonas aeruginosa; [4]): > 50 µM | MIC (Pseudomonas aeruginosa; [5]): > 99 µg/mL | MIC ([3]; Experiment 1, listed as 12 (UdSBI-4377), read-out: MIC Mycobacterium intracellulare): >50 µM | MIC (µg/ml) Mycobacterium intracellulare [3, 6]: >99.02 µg/mL | MIC [3, 7]: >50 µM | MIC [3, 8]: > 99 µg/mL | MIC [3, 9]: > 50 µM | MIC [3, 10]: > 99 µg/mL | MIC [3, 11]: > 50 µM | Cl (in vivo; [16]): 4.14 mL/min/kg | T1/2 (in vivo; [16]): 1.37 h | VSS (in vivo; [16]): 0.42 L/kg | AUC (in vivo; mouse, in vivo, iv): 3870 h nM/(nmol kg-1) | Cmax (in vivo; mouse, in vivo, iv): 3270 nM/(nmol kg-1) | Plasma concentration 24 h (in vivo; mouse, in vivo, iv): BLOQ | effect of bedaquiline on activity against Mtb H37Rv (Mtb H37Rv): no effect
